Data: patent publication US20260217646A1, “SPERMINE DERIVATIVE AND THERAPEUTIC USE THEREOF FOR DISEASES” (Institute of Basic Medical Sciences, Chinese Academy of …, priority 2022, published 2026)

Key:
[1] = tested on: Human T-lymphocytic leukemia Jurkat cells (IL-2 secretion); assay: IL-2 ELISA in PMA/ionomycin-activated Jurkat cells; assay type: cell-based; conditions: 10 μM SD1 pretreatment 3 hours; PMA 50 ng/ml and ionomycin for 24 hours; ELISA (FIG. 4A)
Method: Human T-lymphocytic leukemia Jurkat cells were cultured in RPMI1640 medium containing 10% FBS. The cells were pretreated with SD1 at a dose of 10 μM for 3 hours. For the control group cells (at a dose of 0), an equal volume of DMSO was added to the medium. Subsequently, the cells were continued to be stimulated with phorbol ester (PMA, 50 ng/ml) and ionomycin ([…]) for 24 hours. The cell culture supernatant was collected, and the level of IL-2 was detected using enzyme linked immunosorbent assay (ELISA) (FIG. 4A).

[2] = tested on: ISG promoter in RAW264.7 cells; assay: ISG promoter-reporter (luciferase) assay in RAW264.7 cells under mIFN-β stimulation; assay type: cell-based, mouse; conditions: 10 μM SD1 pretreatment 3 hours; mIFN-β 1 ng/ml for 7 hours; luciferase in supernatant (FIG. 1A)
Method: The RAW264.7 cell line with ISG promoter-reporter gene was purchased from Invivogen and cultured in DMEM containing 10% fetal bovine serum (FBS). The cells were pretreated with 10 μM SD1 for 3 hours. A concentrated solution of the above-mentioned SD1 was freshly formulated in DMSO at a concentration of 20 mM before each use, and subsequently diluted as needed. Afterwards, the cells were stimulated with recombinant mouse interferon-beta (mIFN-β) at a dose of 1 ng/ml for 7 hours, and the cell culture supernatant was obtained. Meanwhile, the luciferase substrate powder was dissolved in 25 ml of deionized water under dark conditions, aliquoted, and stored at −80° C. for preparation of the luciferase substrate. 20 μl of the culture supernatant was transferred to a Luciferase specific 96-well ELISA plate, and detected using Thermo VARIOSKAN FLASH microplate-reader (FIG. 1A).

[3] = tested on: ISG genes in peripheral blood cells of SLE model mice; assay: ISG expression in peripheral blood cells of pristane-induced SLE model mice; assay type: in vivo, mouse; conditions: C57 female mice; SD1 10 mg/kg intraperitoneal once a day for 5 days before pristane; blood on days 4 and 6 (FIG. 3A to 3C)
Excerpt: Lupus-like symptoms similar to those in human patients were induced in mice by the hydrocarbon compound pristane (also referred as norphytane, 2,6,10,14-tetramethylpentadecane) (Zhuang et al., Animal Models of Interferon Signature Positive Lupus. Front Immunol. 2015. 6: p. 291; Nacionales, D. C et al. (2006). Type I interferon production by tertiary lymphoid tissue developing in response to 2,6,10,14-tetramethyl-pentadecane (pristane). The American journal of pathology 168, 1227-1240; Reeves, W. H et al. (2009). Induction of autoimmunity by pristane and other naturally occurring hydrocarbons. Trends Immunol. 30, 455-464). […] It is a recognized model that is able to simulate the overexpression of type I interferon in SLE patients, which can aid in elucidating the pathogenesis of SLE and finding therapeutic targets.
Firstly, C57 female mice were pretreated by intraperitoneal injection of PBS and SD1 (10 mg/kg, once a day, for 5 consecutive days). Subsequently, SLE mice were induced by intraperitoneal injection of pristane (500 μl/mouse). On days 4 and 6 after the injection of pristane, blood was collected from the eye-fundus vascular plexus, and total RNA was obtained from the peripheral blood by using Trizol to detect the effect of spermine on the early type I interferon effect of pristane-induced mice.

NFAT = assay: Jurkat-Lucia NFAT reporter gene assay; assay type: cell-based, human; conditions: Jurkat-Lucia NFAT cells; 10 μM SD1 pretreatment 3 hours; PMA 50 ng/ml and ionomycin 300 ng/ml for 24 hours (FIG. 4B)
Method: Jurkat-Lucia NFAT reporter cell line was purchased from invivogen and cultured in RPMI1640 medium containing 10% FBS. The cells were pretreated with 10 μM SD1 for 3 hours. For the control group cells (at a dose of 0), an equal volume of DMSO was added to the medium. Subsequently, PMA (50 ng/ml) and ionomycin (300 ng/ml) were used to stimulate for 24 hours. The cell culture supernatant was obtained. Meanwhile, the luciferase substrate powder was dissolved in 25 ml of deionized water under dark conditions, aliquoted and stored at −80° C. for the preparation of the luciferase substrate. 20 μl of the culture supernatant was transferred to a Luciferase specific 96-well ELISA plate, and detected using Thermo VARIOSKAN FLASH microplate-reader (FIG. 4B).

[4] = tested on: JAK-STAT signaling pathway (IFN-β mediated); assay: Western blot of type I interferon signaling pathway activation in mouse primary peritoneal macrophages stimulated with mIFN-β; assay type: cell-based; conditions: 10 μM SD1 pretreatment 3 hours, mIFN-β 500 μg/ml for different time periods, Western blot (FIG. 2A)
Method: PMs were obtained using the method as described in Example 2 and cultured in endotoxin-free high-glucose DMEM medium containing 10% FBS. The cells were pretreated with 10 μM SD1 for 3 hours. For the control group cells (at a dose of 0), an equal volume of DMSO was added to the medium. Afterwards, the cells were stimulated with mIFN-β (at a dose of 500 μg/ml) for different time periods. Subsequently, total cellular proteins were extracted, and the activation of the type I interferon signaling pathway was detected using Western blot (FIG. 2A).

[5] = tested on: JAK-STAT signaling pathway (IL-2 mediated); assay: Western blot of signaling pathway activation in mouse spleen cells stimulated with IL-2; assay type: cell-based; conditions: 10 μM SD1 pretreatment 3 hours, IL-2 10 ng/ml for different time periods, Western blot (FIG. 2B)
Method: Mouse spleen single cells were isolated from spleens of the male mice 6-8 weeks old, and the cells freshly obtained were cultured in RPMI1640 medium containing 10% FBS, non-essential amino acids, and β-mercaptoethanol. The cells were pretreated with 10 μM SD1 for 3 hours. For the control group cells (at a dose of 0), an equal volume of DMSO was added to the medium. Subsequently, the cells were stimulated with 10 ng/ml recombinant mouse interleukin-2 (IL-2) for different time periods. The cells were collected, total cellular proteins were extracted, and the activation of the type I interferon signaling pathway was detected using Western blot (FIG. 2B).

[6] = tested on: interferon-stimulated genes (ISGs) Ifit1 and Mx1; assay: qPCR of interferon-stimulated gene mRNAs in mouse primary peritoneal macrophages after mIFN-β stimulation; assay type: cell-based; conditions: 10 μM SD1 pretreatment 3 hours, mIFN-β 500 μg/ml for 3 hours, qPCR (FIG. 1B)
Method: 2 ml of 3% mercaptoacetate (dissolved in double distilled water at a ratio in % by m/v, and then subjected to high-pressure sterilization treatment) was injected into C57BL/6 mice (6-8 weeks old, male) intraperitoneally. After 3 days, mouse primary peritoneal macrophages (PMs) were isolated from the C57BL/6 mice and cultured in endotoxin-free high-glucose DMEM medium containing 10% FBS.
The next day, the medium was replaced by fresh complete medium, and the cells were pretreated with 10 μM SD1 for 3 hours. For the control group cells (at a dose of 0), an equal volume of DMSO was added to the medium. Afterwards, the cells were stimulated with mIFN-β (at a dose of 500 μg/ml) for 3 hours, and RNAs were subsequently extracted for reverse transcription. The contents of mRNAs (including Ifit1 and Mx1) of interferon-stimulated genes (ISGs) were detected and analyzed by fluorescence quantitative PCR (qPCR) method using commercial primers and conditions recommended by manufacturers (FIG. 1B).

CC(C(=O)NCCCNCCCCNCCCNC(=O)C(C)(c1ccccc1)c1ccccc1)(c1ccccc1)c1ccccc1 [SD1]
IL-2 secretion level of activated Jurkat cells [1]: effectively inhibit | activity of ISG promoter in RAW264.7 cells [2]: effectively inhibit | ISG expression (Ifit1, Isg15, Rsad2) in peripheral blood cells of SLE model mice [3]: inhibit | transcriptional activity of NFAT (reporter gene activity) (NFAT): effectively inhibits | activation of the JAK-STAT signaling pathway mediated by IFN-β (levels of p-JAK1, p-TYK2, p-STAT1/2) [4]: effectively inhibit | activation of the JAK-STAT signaling pathway mediated by IL-2 (levels of p-JAK1, p-TYK2, p-STAT1/2) [5]: effectively inhibit | expression of Ifit1 mRNA downstream of type I interferon [6]: reduce | expression of Mx1 mRNA downstream of type I interferon [6]: reduce
